# Test results taken from patent publication US7632918B2, “Semi-synthetic glycopeptides with antibiotic activity” (Novartis Vaccines and Diagnostics, Inc., priority 2005, dated 2009).
# How the values were obtained:
# Assay in all cases: MIC, broth microdilution in Meuller-Hinton broth (NCCLS)
# [1] = system: 533 S. epidermidis; format: cell-based, Staphylococus epidermidis; settings: clinical isolate
# Procedure: (§1) Antibacterial activity in vitro was investigated by broth microdilution method in Meuller-Hinton broth as recommended by NCCLS. All strains tested were clinical isolates either sensitive or resistant to natural glycopeptides. Results are reported in the tables as MIC (minimal inhibitory concentration) in μg/ml.
# (§2) The glycopeptides were tested against a variety of strains, indicated below, including Staphylococus epidermidis, Staphylococus haemolyticus, glycopeptides-intermediate Staphylococus aureus (GISA), glocopeptide-sensitive Enterococcus faecalis (GSE), and glocopeptide-resistant Enterococcus faecalis (GRE). Results are shown in the table as minimum inhibitory concentration (MIC) in units of μg/ml: […]
# [2] = system: 559 E. faecalis (GSE); format: cell-based, Enterococcus faecalis; settings: glycopeptide-sensitive clinical isolate
# Procedure: as §1, §2
# [3] = system: 560 E. faecalis (GRE); format: cell-based, Enterococcus faecalis; settings: glycopeptide-resistant clinical isolate
# Procedure: as §1, §2
# [4] = system: 568 E. faecium (GSE); format: cell-based; settings: glycopeptide-sensitive clinical isolate
# Procedure: as §1, §2
# [5] = system: 569 E. faecium (GRE); format: cell-based; settings: glycopeptide-resistant clinical isolate
# Procedure: as §1, §2
# [6] = system: 3798 S. aureus (GISA); format: cell-based, Staphylococus aureus; settings: glycopeptides-intermediate clinical isolate
# Procedure: as §1, §2
# [7] = system: 3797 S. aureus (GISA); format: cell-based, Staphylococus aureus; settings: glycopeptides-intermediate clinical isolate
# Procedure: as §1, §2
# [8] = system: 602 S. haemolyticus; format: cell-based, Staphylococus haemolyticus; settings: clinical isolate
# Procedure: as §1, §2
Compound,MIC 533 S. epidermidis [1],MIC 559 E. faecalis (GSE) [2],MIC 560 E. faecalis (GRE) [3],MIC 568 E. faecium (GSE) [4],MIC 569 E. faecium (GRE) [5],MIC 3798 S. aureus (GISA) [6],MIC 3797 S. aureus (GISA) [7],MIC 602 S. haemolyticus [8]
"CCCCc1ccc(CNCC(=O)NC2(C)CC(OC3C(Oc4c5cc6cc4Oc4ccc(cc4Cl)C(O)C(NC(=O)C(CC(C)C)NC)C(=O)NC(CC(N)=O)C(=O)NC6C(=O)NC4C(=O)NC(C(=O)NC(C(=O)O)c6cc(O)cc(O)c6-c6cc4ccc6O)C(OC4CC(C)(N)C(O)C(C)O4)c4ccc(cc4)O5)OC(CO)C(O)C3O)OC(C)C2O)cc1 (stereo not drawn) [Compound 57, N′-p-BuBnHNCH2CO eremomycin]",0.5 µg/mL,0.5 µg/mL,4 µg/mL,0.5 µg/mL,4 µg/mL,4 µg/mL,4 µg/mL,2 µg/mL
CNC(CC(C)C)C(=O)NC1C(=O)NC(CC(N)=O)C(=O)NC2C(=O)NC3C(=O)NC(C(=O)NC(C(=O)O)c4cc(O)cc(O)c4-c4cc3ccc4O)C(OC3CC(C)(N)C(O)C(C)O3)c3ccc(cc3)Oc3cc2cc(c3OC2OC(CO)C(O)C(O)C2OC2CC(C)(NC(=O)CNCc3c[nH]c4ccc(OCc5ccccc5)cc34)C(O)C(C)O2)Oc2ccc(cc2Cl)C1O (stereo not drawn) [Compound 224],2 µg/mL,2 µg/mL,>64 µg/mL,1 µg/mL,16 µg/mL,8 µg/mL,8 µg/mL,2 µg/mL
CCCCOc1ccc(CNCC(=O)NC2(C)CC(OC3C(Oc4c5cc6cc4Oc4ccc(cc4Cl)C(O)C4NC(=O)C(NC(=O)C6NC(=O)C(CC(N)=O)NC(=O)C(NC(=O)C(CC(C)C)NC)C(O)c6ccc(c(Cl)c6)O5)c5ccc(O)c(c5)-c5c(O)cc(O)cc5C(C(=O)O)NC4=O)OC(CO)C(O)C3O)OC(C)C2O)cc1 (stereo not drawn) [Compound 218],0.13 µg/mL,1 µg/mL,>64 µg/mL,0.5 µg/mL,>64 µg/mL,1 µg/mL,0.5 µg/mL,0.13 µg/mL
N′-stilbenylHNCH2CO eremomycin [Compound 192],0.5 µg/mL,1 µg/mL,8 µg/mL,0.5 µg/mL,4 µg/mL,8 µg/mL,8 µg/mL,0.5 µg/mL
CNC(CC(C)C)C(=O)NC1C(=O)NC(CC(N)=O)C(=O)NC2C(=O)NC3C(=O)NC(C(=O)NC(C(=O)O)c4cc(O)cc(O)c4-c4cc3ccc4O)C(O)c3ccc(c(Cl)c3)Oc3cc2cc(c3OC2OC(CO)C(O)C(O)C2OC2CC(C)(NC(=O)CNCc3ccc(C(F)(F)F)cc3)C(O)C(C)O2)Oc2ccc(cc2Cl)C1O (stereo not drawn) [Compound 290],4 µg/mL,2 µg/mL,>64 µg/mL,4 µg/mL,>64 µg/mL,4 µg/mL,4 µg/mL,4 µg/mL
CCCCN(CCCC)c1ccc(CNCC(=O)NC2(C)CC(OC3C(Oc4c5cc6cc4Oc4ccc(cc4Cl)C(O)C(NC(=O)C(CC(C)C)NC)C(=O)NC(CC(N)=O)C(=O)NC6C(=O)NC4C(=O)NC(C(=O)NC(C(=O)O)c6cc(O)cc(O)c6-c6cc4ccc6O)C(OC4CC(C)(N)C(O)C(C)O4)c4ccc(cc4)O5)OC(CO)C(O)C3O)OC(C)C2O)cc1 (stereo not drawn) [Compound 187],1 µg/mL,2 µg/mL,32 µg/mL,1 µg/mL,32 µg/mL,8 µg/mL,8 µg/mL,1 µg/mL
CCCCc1ccc(CNCC(=O)NC2(C)CC(OC3C(Oc4c5cc6cc4Oc4ccc(cc4Cl)C(O)C(NC(=O)C(CC(C)C)NC)C(=O)NC(CC(N)=O)C(=O)NC6C(=O)NC4C(=O)NC(C(=O)NC(C(=O)NC)c6cc(O)cc(O)c6-c6cc4ccc6O)C(OC4CC(C)(N)C(O)C(C)O4)c4ccc(cc4)O5)OC(CO)C(O)C3O)OC(C)C2O)cc1 (stereo not drawn) [Compound 77],1 µg/mL,2 µg/mL,8 µg/mL,2 µg/mL,8 µg/mL,2 µg/mL,2 µg/mL,2 µg/mL
CNC(CC(C)C)C(=O)NC1C(=O)NC(CC(N)=O)C(=O)NC2C(=O)NC3C(=O)NC(C(=O)NC(C(=O)O)c4cc(O)cc(O)c4-c4cc3ccc4O)C(OC3CC(C)(N)C(O)C(C)O3)c3ccc(cc3)Oc3cc2cc(c3OC2OC(CO)C(O)C(O)C2OC2CC(C)(NC(=O)CNCc3ccc4c(c3)Cc3ccccc3-4)C(O)C(C)O2)Oc2ccc(cc2Cl)C1O (stereo not drawn) [Compound 292],4 µg/mL,2 µg/mL,32 µg/mL,2 µg/mL,32 µg/mL,8 µg/mL,8 µg/mL,4 µg/mL
CCCCCCCCOc1ccc(CNCC(=O)NC2(C)CC(OC3C(Oc4c5cc6cc4Oc4ccc(cc4Cl)C(O)C4NC(=O)C(NC(=O)C6NC(=O)C(CC(N)=O)NC(=O)C(NC(=O)C(CC(C)C)NC)C(O)c6ccc(c(Cl)c6)O5)c5ccc(O)c(c5)-c5c(O)cc(O)cc5C(C(=O)NCc5ccc(F)cc5)NC4=O)OC(CO)C(O)C3O)OC(C)C2O)cc1 (stereo not drawn) [Compound 277],4 µg/mL,4 µg/mL,8 µg/mL,4 µg/mL,8 µg/mL,4 µg/mL,8 µg/mL,8 µg/mL
